For 26 molecules, EC50 results are on record in US9561228B2 (Celgene Avilomics Research, Inc., priority 2013, dated 2017).

The test system of assay [1] is ERK1/2 phosphorylation of p90RSK in HT29 cells. The assay is described as follows: pRSK MSD Assay in HT29 cells. In kind it is cell-based. The following applies: Homo sapiens, HT-29, read-out: ERK1/ERK2 PRSK MSD HT29 EC50. The gist of the method:
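Phospho-RSK level, read by electrochemiluminescence on RSK-antibody-coated MSD plates with a phospho-RSK/Sulfo-tag detection pair, reports cellular ERK1/2 activity. HT29 cells, kept overnight in 0.1% FBS medium, were exposed to compound for 120 min at 37° C before lysis.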

In assay [2] the test system is ERK1/2 phosphorylation of p90RSK in A375 cells. The assay is described as follows: Detection of total and phosphor-RSK by MSD ELISA (A375). In kind it is cell-based. The following applies: Homo sapiens, A-375, read-out: ERK1/ERK2 PRSK A375 EC50. The gist of the method: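 Electrochemiluminescent MSD ELISA: common RSK capture antibody, with pRSK Ser380 or total RSK detection antibodies plus SulfoTag secondaries. Samples were lysates of A375 cells exposed to compound for 2 h at 37° C after overnight culture in 0.1% FBS DMEM.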

`C=CC(=O)Nc1cc(C)ccc1Nc1nc(Nc2nc(OC)ncc2C)ncc1C(F)(F)F` [Compound I-347, N-(2-((2-((2-methoxy-5-methylpyrimidin-4-yl)amino)-5-(trifluoromethyl)pyrimidin-4-yl)amino)-5-methylphenyl)acrylamide]: the EC50 in assay [1] is under 100 nM; in assay [2] it was 101 to 500 nM.

For the molecule `C=CC(=O)Nc1cc(C)ccc1Nc1nc(Nc2nc(OC)ncc2OC)ncc1C(F)(F)F` [Compound I-349, N-(2-((2-((2,5-dimethoxypyrimidin-4-yl)amino)-5-(trifluoromethyl)pyrimidin-4-yl)amino)-5-methylphenyl)acrylamide], the EC50 in assay [1] and in assay [2] was 101 to 500 nM each time.

Turning to `C=CC(=O)Nc1cc(C)ccc1Nc1nc(Nc2cnc(OC)cc2C)ncc1C(F)(F)F` [Compound I-350, N-(2-((2-((6-methoxy-4-methylpyridin-3-yl)amino)-5-(trifluoromethyl)pyrimidin-4-yl)amino)-5-methylphenyl)acrylamide], the EC50 in assay [1] and in assay [2] was over 1000 nM throughout.

In the case of `C=CC(=O)Nc1cc(C)ccc1Nc1nc(Nc2cc(OC)ncc2Cl)ncc1C(F)(F)F` [Compound I-351, N-(2-((2-((5-chloro-2-methoxypyridin-4-yl)amino)-5-(trifluoromethyl)pyrimidin-4-yl)amino)-5-methylphenyl)acrylamide], the EC50 in assay [1] and in assay [2] was 101 to 500 nM throughout.

For the molecule `C=CC(=O)Nc1cc(C)ccc1Nc1nc(Nc2ncc(C(F)(F)F)c(OC)n2)ncc1C(F)(F)F` [Compound I-354, N-(2-((2-((4-methoxy-5-(trifluoromethyl)pyrimidin-2-yl)amino)-5-(trifluoromethyl)pyrimidin-4-yl)amino)-5-methylphenyl)acrylamide], the EC50 in assay [1] and in assay [2] was 101 to 500 nM throughout.

`C=CC(=O)Nc1cc(C)ccc1Nc1nc(Nc2nc(OC)ncc2C(F)(F)F)ncc1C(F)(F)F` [Compound I-355, N-(2-((2-((2-methoxy-5-(trifluoromethyl)pyrimidin-4-yl)amino)-5-(trifluoromethyl)pyrimidin-4-yl)amino)-5-methylphenyl)acrylamide]: the EC50 in assay [1] and in assay [2] was 101 to 500 nM throughout.

`C=CC(=O)Nc1cc(C)ccc1Nc1nc(Nc2ncc(F)c(OC)n2)ncc1C(F)(F)F` [Compound I-356, N-(2-((2-((5-fluoro-4-methoxypyrimidin-2-yl)amino)-5-(trifluoromethyl)pyrimidin-4-yl)amino)-5-methylphenyl)acrylamide]: the EC50 in assay [1] and in assay [2] was 101 to 500 nM throughout.

Take `C=CC(=O)Nc1cc(C)ccc1Nc1nc(Nc2nc(OC)ncc2F)ncc1C(F)(F)F` [Compound I-357, N-(2-((2-((5-fluoro-2-methoxypyrimidin-4-yl)amino)-5-(trifluoromethyl)pyrimidin-4-yl)amino)-5-methylphenyl)acrylamide]: the EC50 in assay [1] and in assay [2] was 101 to 500 nM each time.

Consider `C=CC(=O)Nc1cc(C)ccc1Nc1nc(Nc2cc(OCC)ncc2C)ncc1C(F)(F)F` [Compound I-358, N-(2-((2-((2-ethoxy-5-methylpyridin-4-yl)amino)-5-(trifluoromethyl)pyrimidin-4-yl)amino)-5-methylphenyl)acrylamide], for which the EC50 in assay [1] and in assay [2] was 101 to 500 nM throughout.

For `C=CC(=O)Nc1cc(C)ccc1Nc1nc(Nc2cc(OCCOC)ncc2C)ncc1C(F)(F)F` [Compound I-359, N-(2-((2-((2-(2-methoxyethoxy)-5-methylpyridin-4-yl)amino)-5-(trifluoromethyl)pyrimidin-4-yl)amino)-5-methylphenyl)acrylamide], the EC50 in assay [1] and in assay [2] was 101 to 500 nM throughout.

As to `C=CC(=O)Nc1cc(C)ccc1Nc1nc(Nc2nc(OC)ccc2Cl)ncc1C(F)(F)F` [Compound I-360, N-(2-((2-((3-chloro-6-methoxypyridin-2-yl)amino)-5-(trifluoromethyl)pyrimidin-4-yl)amino)-5-methylphenyl)acrylamide], the EC50 in assay [1] and in assay [2] was 101 to 500 nM in each case.

As to `C=CC(=O)Nc1cc(C)ccc1Nc1nc(Nc2cc(OC)cnc2Cl)ncc1C(F)(F)F` [Compound I-361, N-(2-((2-((2-chloro-5-methoxypyridin-3-yl)amino)-5-(trifluoromethyl)pyrimidin-4-yl)amino)-5-methylphenyl)acrylamide], the EC50 in assay [1] was under 100 nM; in assay [2] it was 101 to 500 nM.

On to `C=CC(=O)Nc1cc(C)ccc1Nc1nc(Nc2nc(O)ncc2C)ncc1C(F)(F)F` [Compound I-364, N-(2-((2-((2-hydroxy-5-methylpyrimidin-4-yl)amino)-5-(trifluoromethyl)pyrimidin-4-yl)amino)-5-methylphenyl)acrylamide], for which the EC50 in assay [1] and in assay [2] was under 100 nM in each case.

Consider `C=CC(=O)Nc1cc(C)c(F)cc1Nc1nc(Nc2cc(OC)ncc2C)ncc1C(F)(F)F` [Compound I-366, N-(4-fluoro-2-((2-((2-methoxy-5-methylpyridin-4-yl)amino)-5-(trifluoromethyl)pyrimidin-4-yl)amino)-5-methylphenyl)acrylamide], for which the EC50 in assay [1] and in assay [2] was over 1000 nM each time.

In the case of `C=CC(=O)Nc1c(Nc2nc(Nc3cc(OC)ncc3C)ncc2C(F)(F)F)ccc(C)c1F` [Compound I-367, N-(2-fluoro-6-((2-((2-methoxy-5-methylpyridin-4-yl)amino)-5-(trifluoromethyl)pyrimidin-4-yl)amino)-3-methylphenyl)acrylamide], the EC50 in assay [1] and in assay [2] was 101 to 500 nM each time.

In the case of `C=CC(=O)Nc1cc(C)ccc1Nc1nc(Nc2cc(OC(C)C)ncc2C)ncc1C(F)(F)F` [Compound I-369, N-(2-((2-((2-isopropoxy-5-methylpyridin-4-yl)amino)-5-(trifluoromethyl)pyrimidin-4-yl)amino)-5-methylphenyl)acrylamide], the EC50 in assay [1] and in assay [2] was over 1000 nM in each case.

With `C=CC(=O)Nc1cc(C)ccc1Nc1nc(Nc2c[nH]c(=O)cc2C)ncc1C(F)(F)F` [Compound I-370, N-(5-methyl-2-((2-((4-methyl-6-oxo-1,6-dihydropyridin-3-yl)amino)-5-(trifluoromethyl)pyrimidin-4-yl)amino)phenyl)acrylamide], the EC50 in assay [1] was 501 to 999 nM; in assay [2] it was over 1000 nM.

With `C=CC(=O)Nc1cc(C)ccc1Nc1nc(Nc2nc(OC)nc(OC)n2)ncc1C(F)(F)F` [Compound I-371, N-(2-((2-((4,6-dimethoxy-1,3,5-triazin-2-yl)amino)-5-(trifluoromethyl)pyrimidin-4-yl)amino)-5-methylphenyl)acrylamide], the EC50 in assay [1] and in assay [2] was 101 to 500 nM each time.

As for `C=CC(=O)Nc1cc(C)ccc1Nc1nc(Nc2cc(OC)nnc2OC)ncc1C(F)(F)F` [Compound I-372, N-(2-((2-((3,6-dimethoxypyridazin-4-yl)amino)-5-(trifluoromethyl)pyrimidin-4-yl)amino)-5-methylphenyl)acrylamide], the results for the EC50 in assay [1] and in assay [2] were under 100 nM and 101 to 500 nM, respectively.

With `C=CC(=O)Nc1cc(C)ccc1Nc1nc(Nc2cc(-c3nc[nH]n3)ccc2C)ncc1C(F)(F)F` [Compound I-373, N-(5-methyl-2-((2-((2-methyl-5-(1H-1,2,4-triazol-3-yl)phenyl)amino)-5-(trifluoromethyl)pyrimidin-4-yl)amino)phenyl)acrylamide], the EC50 was 101 to 500 nM in assay [1] and 501 to 999 nM in assay [2].

`C=CC(=O)Nc1cc(C)c(F)cc1Nc1nc(Nc2nc(OC)ncc2Cl)ncc1C(F)(F)F` [Compound I-374, N-(2-((2-((5-chloro-2-methoxypyrimidin-4-yl)amino)-5-(trifluoromethyl)pyrimidin-4-yl)amino)-4-fluoro-5-methylphenyl)acrylamide]: the EC50 in assay [1] and in assay [2] was under 100 nM in each case.

On to `C=CC(=O)Nc1cc(C)ccc1Nc1nc(Nc2ccc3ocnc3c2)ncc1C(F)(F)F` [Compound I-375, N-(2-((2-(benzo[d]oxazol-5-ylamino)-5-(trifluoromethyl)pyrimidin-4-yl)amino)-5-methylphenyl)acrylamide], for which the EC50 is over 1000 nM in assay [1] and 101 to 500 nM in assay [2].

`C=CC(=O)Nc1cc(C)ccc1Nc1nc(Nc2cc(OCCO)ncc2C)ncc1C(F)(F)F` [Compound I-376, N-(2-((2-((2-(2-hydroxyethoxy)-5-methylpyridin-4-yl)amino)-5-(trifluoromethyl)pyrimidin-4-yl)amino)-5-methylphenyl)acrylamide]: the EC50 in assay [1] and in assay [2] was under 100 nM throughout.

Consider `C=CC(=O)Nc1cc(C)c(F)cc1Nc1nc(Nc2nc(OC)ncc2C)ncc1C(F)(F)F` [Compound I-377, N-(4-fluoro-2-((2-((2-methoxy-5-methylpyrimidin-4-yl)amino)-5-(trifluoromethyl)pyrimidin-4-yl)amino)-5-methylphenyl)acrylamide], for which the EC50 in assay [1] and in assay [2] was under 100 nM throughout.

Regarding `C=CC(=O)Nc1cc(C)ccc1Nc1nc(Nc2cc(-c3c[nH]cn3)ccc2C)ncc1C(F)(F)F` [Compound I-378, N-(2-((2-((5-(1H-imidazol-4-yl)-2-methylphenyl)amino)-5-(trifluoromethyl)pyrimidin-4-yl)amino)-5-methylphenyl)acrylamide], the EC50 in assay [1] is 101 to 500 nM; in assay [2] it was 501 to 999 nM.

For the molecule `C=CC(=O)Nc1cc(C)ccc1Nc1nc(Nc2ccnc3ccccc23)ncc1C(F)(F)F` [Compound I-379, N-(5-methyl-2-((2-(quinolin-4-ylamino)-5-(trifluoromethyl)pyrimidin-4-yl)amino)phenyl)acrylamide], the EC50 in assay [1] and in assay [2] was under 100 nM in each case.
